We go through 16 molecules from patent publication US9795139B2, “Molecules having pesticidal utility, and intermediates, compositions, and processes, related thereto” (priority 2015, dated 2017).

In general, mortality refers to the share of the test organisms that died.

SMILES strings stand for the structures.

Type in all cases: in vivo
Data set [1] concerns Beet Armyworm (Spodoptera exigua, LAPHEG). As to the kind of experiment: Bioassay on Beet Armyworm (BAW), 128-well diet tray assay. The conditions noted are these: 168 h, 50 μg/cm^2 on artificial diet, second instar larvae, 25° C., five to seven days, average of eight wells, read-out: BAW % Control (or Mortality) rating. How it is done: (§1) Certain molecules disclosed in this document were tested against BAW and CL using procedures described in the following examples. In the reporting of the results, the “BAW & CL Rating Table” was used (See Table Section).
Bioassays on BAW were conducted using a 128-well diet tray assay. One to five second instar BAW larvae were placed in each well (3 mL) of the diet tray that had been previously filled with approximately 1.5 mL of artificial diet to which 50 μg/cm^2 of the test molecule (dissolved in 50 μL of 90:10 acetone-water mixture) had been applied (to each of eight wells) and then allowed to dry. Trays were covered with a clear self-adhesive cover, vented to allow gas exchange, and held at 25° C., 14:10 light-dark for five to seven days. Percent mortality was recorded for the larvae in each well; activity in the eight wells was then averaged. The results are indicated in the table entitled “Table ABC: Biological Results” (See Table Section).

Data set [2] has as its system Cabbage Looper (Trichoplusia ni, TRIPNI). As to the kind of experiment: Bioassay on Cabbage Looper (CL), 128-well diet tray assay. The conditions noted are these: 168 h, 50 μg/cm^2 on artificial diet, second instar larvae, 25° C., five to seven days, average of eight wells, read-out: CL % Control (or Mortality) rating. How it is done:
as §1
Bioassays on CL were conducted using a 128-well diet tray assay. one to five second instar CL larvae were placed in each well (3 mL) of the diet tray that had been previously filled with 1 mL of artificial diet to which 50 μg/cm^2 of the test molecule (dissolved in 50 μL of 90:10 acetone-water mixture) had been applied (to each of eight wells) and then allowed to dry. Trays were covered with a clear self-adhesive cover, vented to allow gas exchange, and held at 25° C., 14:10 light-dark for five to seven days. Percent mortality was recorded for the larvae in each well; activity in the eight wells was then averaged. The results are indicated in the table entitled “Table ABC: Biological Results” (See Table Section).

In data set [3] the test system is Yellow Fever Mosquito (Aedes aegypti, AEDSAE). The conditions noted are these: about 1 day-old larvae, 96-well plate from 4000 ppm DMSO master, 3 days at room temperature. How it is done: Certain molecules disclosed in this document were tested against YFM using procedures described in the following paragraph. In the reporting of the results, the “GPA & YFM Rating Table” was used (See Table Section).
Master plates containing 400 μg of a molecule dissolved in 100 μL of dimethyl sulfoxide (DMSO) (equivalent to a 4000 ppm solution) are used. A master plate of assembled molecules contains 15 μL per well. To this plate, 135 μL of a 90:10 water/acetone mixture is added to each well. A robot is programmed to dispense 15 μL aspirations from the master plate into an empty 96-well shallow plate (“daughter” plate). There are 6 reps (“daughter” plates) created per master. The created “daughter” plates are then immediately infested with YFM larvae.
The day before plates are to be treated, mosquito eggs are placed in Millipore water containing liver powder to begin hatching (4 g. into 400 mL). After the “daughter” plates are created using the robot, they are infested with 220 μL of the liver powder/larval mosquito mixture (about 1 day-old larvae). After plates are infested with mosquito larvae, a non-evaporative lid is used to cover the plate to reduce drying. Plates are held at room temperature for 3 days prior to grading. After 3 days, each well is observed and scored based on mortality. The results are indicated in the table entitled “Table ABC: Biological Results” (See Table Section).

With `O=C(NC1CC(F)(F)C1)c1cc(NC(=O)[C@H]2[C@H](c3ccc(C(F)(F)F)cc3)C2(Cl)Cl)ccc1Cl` (relative stereo) [Molecule F22, trans-2-Chloro-5-(2,2-dichloro-3-(4-(trifluoromethyl)phenyl)cyclopropanecarboxamido)-N-(3,3-difluorocyclobutyl)benzamide], the mortality at 50 µg/cm2 in data set [1] and in data set [2] was 50 to 100% each time. In data set [3], the “YFM % Control (or Mortality) rating” value was “A (80-100)”.
As for `CN(C(=O)c1cc(NC(=O)[C@H]2[C@H](c3ccc(Cl)c(Cl)c3)C2(Cl)Cl)ccc1Cl)C1CC(F)(F)C1` (relative stereo) [Molecule F33, trans-2-Chloro-5-(2,2-dichloro-3-(3,4-dichlorophenyl)cyclopropanecarboxamido)-N-(3,3-difluorocyclobutyl)-N-methylbenzamide], the mortality at 50 µg/cm2 in data set [1] and in data set [2] was 50 to 100% each time. The “YFM % Control (or Mortality) rating” value in data set [3] is reported as “A (80-100)”.
With `N#CC1CCC(NC(=O)c2cc(NC(=O)[C@H]3[C@H](c4cc(Cl)cc(Cl)c4)C3(Cl)Cl)ccc2Cl)C1` (relative stereo) [Molecule F35, trans-2-Chloro-N-(3-cyanocyclopentyl)-5-(2,2-dichloro-3-(3,5-dichlorophenyl)cyclopropanecarboxamido)benzamide], the mortality at 50 µg/cm2 in data set [1] and in data set [2] was 50 to 100% throughout. Besides, the “YFM % Control (or Mortality) rating” value in data set [3] was “A (80-100)”.
As for `N#CC1CCC(NC(=O)c2cc(NC(=O)[C@H]3[C@H](c4ccc(Cl)c(Cl)c4)C3(Cl)Cl)ccc2Cl)C1` (relative stereo) [Molecule F36, trans-2-Chloro-N-(3-cyanocyclopentyl)-5-(2,2-dichloro-3-(3,4-dichlorophenyl)cyclopropanecarboxamido)benzamide], the mortality at 50 µg/cm2 in data set [1] and in data set [2] was 50 to 100% throughout. The “YFM % Control (or Mortality) rating” value in data set [3] is listed as “B (More than 0-Less than 80)”.
As for `N#CC1CCC(NC(=O)c2cc(NC(=O)[C@H]3[C@H](c4cc(Cl)c(Cl)c(Cl)c4)C3(Cl)Cl)ccc2Cl)C1` (relative stereo) [Molecule F39, trans-2-Chloro-N-(3-cyanocyclopentyl)-5-(2,2-dichloro-3-(3,4,5-trichlorophenyl)cyclopropanecarboxamido)benzamide], the mortality at 50 µg/cm2 in data set [1] and in data set [2] was 50 to 100% each time. Moreover, the “YFM % Control (or Mortality) rating” value in data set [3] is “A (80-100)”.
On to `O=C(NC1CCC1)c1cc(NC(=O)[C@H]2[C@H](c3cc(Cl)cc(Cl)c3)C2(Cl)Cl)ccc1Cl` (relative stereo) [Molecule F40, trans-2-Chloro-N-cyclobutyl-5-(2,2-dichloro-3-(3,5-dichlorophenyl)cyclopropanecarboxamido)benzamide], for which the mortality at 50 µg/cm2 in data set [1] and in data set [2] was 50 to 100% in each case. The “YFM % Control (or Mortality) rating” value in data set [3] is “A (80-100)”.
Consider `O=C(NC1CCC(F)(F)CC1)c1cc(NC(=O)[C@H]2[C@H](c3cc(Cl)cc(Cl)c3)C2(Cl)Cl)ccc1Cl` (relative stereo) [Molecule F43, trans-2-Chloro-5-(2,2-dichloro-3-(3,5-dichlorophenyl)cyclopropanecarboxamido)-N-(4,4-difluorocyclohexyl)benzamide], for which the mortality at 50 µg/cm2 in data set [1] and in data set [2] was 50 to 100% in each case. In data set [3], the “YFM % Control (or Mortality) rating” value was “A (80-100)”.
In the case of `O=C(NC1CCC(F)(F)CC1)c1cc(NC(=O)[C@H]2[C@H](c3ccc(Cl)c(Cl)c3)C2(Cl)Cl)ccc1Cl` (relative stereo) [Molecule F44, trans-2-Chloro-5-(2,2-dichloro-3-(3,4-dichlorophenyl)cyclopropanecarboxamido)-N-(4,4-difluorocyclohexyl)benzamide], the mortality at 50 µg/cm2 in data set [1] and in data set [2] was 50 to 100% throughout. Further, the “YFM % Control (or Mortality) rating” value in data set [3] was “A (80-100)”.
For `O=C(NC1CCC(F)(F)CC1)c1cc(NC(=O)[C@H]2[C@H](c3cc(Cl)c(Cl)c(Cl)c3)C2(Cl)Cl)ccc1Cl` (relative stereo) [Molecule F45, trans-2-Chloro-5-(2,2-dichloro-3-(3,4,5-trichlorophenyl)cyclopropanecarboxamido)-N-(4,4-difluorocyclohexyl)benzamide], the mortality at 50 µg/cm2 in data set [1] and in data set [2] was 50 to 100% in each case. The “YFM % Control (or Mortality) rating” value in data set [3] is on record as “A (80-100)”.
As to `Cc1cc(Cl)cc([C@H]2[C@H](C(=O)Nc3ccc(Cl)c(C(=O)NC4CC(F)(F)C4)c3)C2(Cl)Cl)c1` (relative stereo) [Molecule F46, trans-2-Chloro-5-(2,2-dichloro-3-(3-chloro-5-methylphenyl)cyclopropanecarboxamido)-N-(3,3-difluorocyclobutyl)benzamide], the mortality at 50 µg/cm2 in data set [1] and in data set [2] was 50 to 100% in each case. For the same molecule, the “YFM % Control (or Mortality) rating” value in data set [3] was “D (No activity noticed in this bioassay)”.
`Cc1c(Cl)cc([C@H]2[C@H](C(=O)Nc3ccc(Cl)c(C(=O)NC4CC(F)(F)C4)c3)C2(Cl)Cl)cc1Cl` (relative stereo) [Molecule F48, trans-2-Chloro-5-(2,2-dichloro-3-(3,5-dichloro-4-methylphenyl)cyclopropanecarboxamido)-N-(3,3-difluorocyclobutyl)benzamide]: the mortality at 50 µg/cm2 in data set [1] and in data set [2] was 50 to 100% throughout. Besides, the “YFM % Control (or Mortality) rating” value in data set [3] was “A (80-100)”.
Consider `N#CC1(NC(=O)c2cc(NC(=O)[C@H]3[C@H](c4ccc(Cl)c(F)c4)C3(Cl)Cl)ccc2Cl)CC1` (relative stereo) [PF2, trans-2-Chloro-N-(1-cyanocyclopropyl)-5-(2,2-dichloro-3-(4-chloro-3-fluorophenyl)cyclopropane-1-carboxamido)benzamide], for which the mortality at 50 µg/cm2 in data set [1] and in data set [2] was 50 to 100% each time.
For the molecule `N#CC1(NC(=O)c2cc(NC(=O)[C@H]3[C@H](c4ccc(F)c(Cl)c4)C3(Cl)Cl)ccc2Cl)CC1` (relative stereo) [PF3, trans-2-Chloro-N-(1-cyanocyclopropyl)-5-(2,2-dichloro-3-(3-chloro-4-fluorophenyl)cyclopropane-1-carboxamido)benzamide], the mortality at 50 µg/cm2 in data set [1] and in data set [2] was 50 to 100% in each case.
In the case of `CN(C(=O)c1cc(NC(=O)[C@H]2[C@H](c3cc(Cl)cc(Cl)c3)C2(Cl)Cl)ccc1Cl)C1(C#N)CC1` (relative stereo) [PF20, trans-2-Chloro-N-(1-cyanocyclopropyl)-5-(2,2-dichloro-3-(3,5-dichloro-phenyl)cyclopropane-1-carboxamido)-N-methylbenzamide], the mortality at 50 µg/cm2 in data set [1] and in data set [2] was 50 to 100% throughout.
On to `O=C(NC1C[S+]([O-])C1)c1cc(NC(=O)C2C(c3cc(Cl)c(Cl)c(Cl)c3)C2(Cl)Cl)ccc1Cl` (single isomer, unassigned) [Molecule F56, trans-2-chloro-5-(2,2-dichloro-3-(3,4,5-trichlorophenyl)cyclopropanecarboxamido)-N-(1-oxidothietan-3-yl)benzamide], for which the mortality at 50 µg/cm2 in data set [1] and in data set [2] was 50 to 100% throughout.
Consider `N#CC1(NC(=O)c2cc(NC(=O)[C@H]3[C@H](c4cc(Cl)cc(Cl)c4)C3(Cl)Cl)ccc2Cl)CC1` [Molecule F75, 2-Chloro-N-(1-cyanocyclopropyl)-5-((1R,3R)-2,2-dichloro-3-(3,5-dichloro-phenyl)cyclopropane-1-carboxamido)benzamide], for which, in data set [3], the “YFM % Control (or Mortality) rating” value was “A (80-100)”.
